From US8920832B2, “Composition for nucleic acid transfection” (Hokkaido System Science Co., Ltd., priority 2006, dated 2014)

Experiments:
HT1080 cells [1] = assay: Cytotoxicity score under microscope after DNA transfection, HT1080 cells; assay type: cell-based; set-up: scale not given here
From the text: (§1) The procedure of Test Example 5 was repeated, except that HeLa cells were replaced with HT1080 cells.
(§2) The procedure of Test Example 7 was repeated, except that HeLa cells were replaced with HT1080 cells.

HT1080 cells [2] = assay: DNA (pCMV-SPORT-βgal) transfection into HT1080 cells: β-gal activity; assay type: cell-based
From the text: as §1, §2

HeLa cells [3] = assay: Cytotoxicity score under microscope after DNA transfection, HeLa cells; assay type: cell-based
Experimental: (§3) HeLa cells were inoculated into a 96-well plate (7,500 cells/100 μL/well), followed by culturing for about 24 hours. DNA (pCMV-SPORT-βgal) was diluted with a DMEM medium, to thereby prepare a DNA-diluted solution having a DNA concentration of 8 μg/mL (for the case of 200 ng/well). […] The thus-obtained solution or Lipofectamine 2000 as a positive control (product of Invitrogen) was diluted with a DMEM medium so that the amount of the reconstituted liposome solution or Lipofectamine 2000 added to cells was “Amount of liposomes added (μL/well)” shown in Table 9 or 10. Immediately after dilution, the DNA-diluted solution (25 μL) was added to and mixed with the liposome-diluted solution (25 μL), and the mixture was allowed to stand still at room temperature for 30 minutes, to thereby form a DNA/liposome complex. The DNA/liposome complex (50 μL) was added to the inoculated HeLa cells (about 70 to about 90% confluent), to thereby initiate transfection. After culturing at 37° C. and 5% CO2 for one hour, a 10% FBS/DMEM medium (100 μL) was added to the culture liquid, followed by culturing at 37° C. and 5% CO2 for about 21 hours.
(§4) Each of the enhancers shown in Table 13 was diluted with a DMEM medium to different concentrations so that the amount of the enhancer finally added to cells was “Enhancer amount (μg/well)” shown in Table 13. […] The thus-diluted liposome solution was added to an equiamount of the above-diluted enhancer, followed by incubation at room temperature for 20 minutes. […] Subsequently, cytotoxicity was evaluated according to the aforementioned scores, and determination of β-gal activity, quantitative determination of protein, and viable cell counting were carried out.

HeLa cells [4] = assay: DNA (pCMV-SPORT-βgal) transfection into HeLa cells: β-gal activity; conditions: for β-gal activity: HeLa; for effect of enhancer on nucleic-acid-transfecting performance and cytotoxicity, in words: enhancer added to liposome solution of Formulation Example 4, summary of Tables 13 and 14 (HeLa and HT1080)
Experimental: as §3
The culture supernatant was removed, and the cells were washed with PBS(−). Thereafter, determination of β-galactosidase (hereinafter may be abbreviated as “β-gal”) activity, quantitative determination of protein, and viable cell counting were carried out as described below.
After complete removal of PBS through suction, a lysis buffer (30 μL) was added to the cells, and the mixture was stirred and then allowed to stand still at −80° C. for 30 minutes or longer for freezing. After rapid thawing in a water bath at 37° C., the mixture was again allowed to stand still at −80° C. for 30 minutes or longer for freezing, followed by rapid thawing in a water bath at 37° C. Thereafter, centrifugation was carried out (2,000 g×10 minutes), and the resultant supernatant (sample) (10 μL) was added to a 96-well microplate.
Determination of β-gal activity was carried out by means of a β-gal assay kit (product of Invitrogen). […] A 2-Me-containing cleavage buffer was added (50 μL/well) to the sample or each of the standard-diluted solutions (10 μL), and 4 mg/mL aqueous ONPG solution was added (17 μL/well), followed by incubation at 37° C. for 30 minutes. After completion of incubation, a stop buffer was added (120 μL/well) for termination of reaction, and absorbance was measured at 405 nm.
as §4

[5] = Formulation Example 4 0.38 μL/well, enhancer 0.00625 μg/well
[6] = Formulation Example 4 0.38 μL/well, enhancer 0.0125 μg/well
[7] = Formulation Example 4 0.38 μL/well, enhancer 0.025 μg/well
[8] = Formulation Example 4 0.38 μL/well, enhancer 0.05 μg/well
[9] = Formulation Example 4 0.38 μL/well, enhancer 0.1 μg/well
[10] = Formulation Example 4 0.75 μL/well, enhancer 0.00625 μg/well
[11] = Formulation Example 4 0.75 μL/well, enhancer 0.0125 μg/well
[12] = Formulation Example 4 0.75 μL/well, enhancer 0.025 μg/well
[13] = Formulation Example 4 0.75 μL/well, enhancer 0.05 μg/well
[14] = Formulation Example 4 0.75 μL/well, enhancer 0.1 μg/well
[15] = Formulation Example 4 0.38 μL/well, enhancer 0.625 μg/well
[16] = Formulation Example 4 0.38 μL/well, enhancer 1.25 μg/well
[17] = Formulation Example 4 0.38 μL/well, enhancer 2.5 μg/well
[18] = Formulation Example 4 0.38 μL/well, enhancer 5 μg/well
[19] = Formulation Example 4 0.38 μL/well, enhancer 10 μg/well
[20] = Formulation Example 4 0.75 μL/well, enhancer 0.625 μg/well
[21] = Formulation Example 4 0.75 μL/well, enhancer 1.25 μg/well
[22] = Formulation Example 4 0.75 μL/well, enhancer 2.5 μg/well
[23] = Formulation Example 4 0.75 μL/well, enhancer 5 μg/well
[24] = Formulation Example 4 0.75 μL/well, enhancer 10 μg/well

## pronectin
HT1080 cells [1]; [5]
  Cytotoxicity score: 1.5
HT1080 cells [1]; [6]
  Cytotoxicity score: 1.0
HT1080 cells [1]; [7]
  Cytotoxicity score: 0.5
HT1080 cells [1]; [8]
  Cytotoxicity score: 1.0
HT1080 cells [1]; [9]
  Cytotoxicity score: 1.0
HT1080 cells [1]; [10]
  Cytotoxicity score: 3.0
HT1080 cells [1]; [11]
  Cytotoxicity score: 3.0
HT1080 cells [1]; [12]
  Cytotoxicity score: 2.5
HT1080 cells [1]; [13]
  Cytotoxicity score: 2.5
HT1080 cells [1]; [14]
  Cytotoxicity score: 2.0
HT1080 cells [2]; [5]
  β-gal activity: 87.2 mU/well
HT1080 cells [2]; [6]
  β-gal activity: 70.2 mU/well
HT1080 cells [2]; [7]
  β-gal activity: 52.0 mU/well
HT1080 cells [2]; [8]
  β-gal activity: 3.3 mU/well
HT1080 cells [2]; [9]
  β-gal activity: 0.3 mU/well
HT1080 cells [2]; [10]
  β-gal activity: 102.6 mU/well
HT1080 cells [2]; [11]
  β-gal activity: 107.3 mU/well
HT1080 cells [2]; [12]
  β-gal activity: 92.1 mU/well
HT1080 cells [2]; [13]
  β-gal activity: 16.0 mU/well
HT1080 cells [2]; [14]
  β-gal activity: 4.4 mU/well
HeLa cells [3]; [5]
  Cytotoxicity score: 2.0
HeLa cells [3]; [6]
  Cytotoxicity score: 2.0
HeLa cells [3]; [7]
  Cytotoxicity score: 2.0
HeLa cells [3]; [8]
  Cytotoxicity score: 1.5
HeLa cells [3]; [9]
  Cytotoxicity score: 2.0
HeLa cells [3]; [10]
  Cytotoxicity score: 4.0
HeLa cells [3]; [11]
  Cytotoxicity score: 3.5
HeLa cells [3]; [12]
  Cytotoxicity score: 3.5
HeLa cells [3]; [13]
  Cytotoxicity score: 3.0
HeLa cells [3]; [14]
  Cytotoxicity score: 3.0
HeLa cells [4]; [5]
  β-gal activity: 23.3 mU/well
HeLa cells [4]; [6]
  β-gal activity: 19.4 mU/well
HeLa cells [4]; [7]
  β-gal activity: 15.5 mU/well
HeLa cells [4]; [8]
  β-gal activity: 3.2 mU/well
HeLa cells [4]; [9]
  β-gal activity: 0.8 mU/well
HeLa cells [4]; [10]
  β-gal activity: 28.7 mU/well
HeLa cells [4]; [11]
  β-gal activity: 25.1 mU/well
HeLa cells [4]; [12]
  β-gal activity: 16.2 mU/well
HeLa cells [4]; [13]
  β-gal activity: 6.2 mU/well
HeLa cells [4]; [14]
  β-gal activity: 2.3 mU/well
HeLa cells [4]
  effect of enhancer on nucleic-acid-transfecting performance and cytotoxicity, in words: excellent effects

## protamine
HT1080 cells [1]; [15]
  Cytotoxicity score: 1.5
HT1080 cells [1]; [16]
  Cytotoxicity score: 1.5
HT1080 cells [1]; [17]
  Cytotoxicity score: 1.0
HT1080 cells [1]; [18]
  Cytotoxicity score: 0.5
HT1080 cells [1]; [19]
  Cytotoxicity score: 0.5
HT1080 cells [1]; [20]
  Cytotoxicity score: 2.5
HT1080 cells [1]; [21]
  Cytotoxicity score: 2.0
HT1080 cells [1]; [22]
  Cytotoxicity score: 2.0
HT1080 cells [1]; [23]
  Cytotoxicity score: 2.0
HT1080 cells [1]; [24]
  Cytotoxicity score: 1.0
HT1080 cells [2]; [15]
  β-gal activity: 79.3 mU/well
HT1080 cells [2]; [16]
  β-gal activity: 61.5 mU/well
HT1080 cells [2]; [17]
  β-gal activity: 23.1 mU/well
HT1080 cells [2]; [18]
  β-gal activity: 4.1 mU/well
HT1080 cells [2]; [19]
  β-gal activity: 2.7 mU/well
HT1080 cells [2]; [20]
  β-gal activity: 103.9 mU/well
HT1080 cells [2]; [21]
  β-gal activity: 103.9 mU/well
HT1080 cells [2]; [22]
  β-gal activity: 49.8 mU/well
HT1080 cells [2]; [23]
  β-gal activity: 19.5 mU/well
HT1080 cells [2]; [24]
  β-gal activity: 15.1 mU/well
HeLa cells [3]; [15]
  Cytotoxicity score: 1.5
HeLa cells [3]; [16]
  Cytotoxicity score: 0.5
HeLa cells [3]; [17]
  Cytotoxicity score: 0.5
HeLa cells [3]; [18]
  Cytotoxicity score: 0.5
HeLa cells [3]; [19]
  Cytotoxicity score: 0.5
HeLa cells [3]; [20]
  Cytotoxicity score: 3.0
HeLa cells [3]; [21]
  Cytotoxicity score: 1.0
HeLa cells [3]; [22]
  Cytotoxicity score: 0.5
HeLa cells [3]; [23]
  Cytotoxicity score: 0.5
HeLa cells [3]; [24]
  Cytotoxicity score: 0.5
HeLa cells [4]; [15]
  β-gal activity: 30.4 mU/well
HeLa cells [4]; [16]
  β-gal activity: 9.8 mU/well
HeLa cells [4]; [17]
  β-gal activity: 4.8 mU/well
HeLa cells [4]; [18]
  β-gal activity: 0.9 mU/well
HeLa cells [4]; [19]
  β-gal activity: 0.1 mU/well
HeLa cells [4]; [20]
  β-gal activity: 46.2 mU/well
HeLa cells [4]; [21]
  β-gal activity: 26.3 mU/well
HeLa cells [4]; [22]
  β-gal activity: 10.1 mU/well
HeLa cells [4]; [23]
  β-gal activity: 3.1 mU/well
HeLa cells [4]; [24]
  β-gal activity: 0.5 mU/well
HeLa cells [4]
  effect of enhancer on nucleic-acid-transfecting performance and cytotoxicity, in words: excellent effects
